Five molecules from US20140005163A1 (NOVARTIS AG, priority 2010, published 2014) can be followed below.

pIC50: −log10 of the molar value.

The target of one assay is T1, PI3K beta (Homo sapiens, UniProt P42338).
T1 construct: for the full-length p110-b subunit are generated and fused by overlapping PCR; p85(iSH2) fusion partner (see partner chain) (N); His tag (C); made in house; host or cells: baculovirus; Tn5 (Trichoplusia ni) or TiniPro insect cells
Briefly: PI3K beta kinase assay (Kinase-Glo luminescence). Type of assay: biochemical. A digest of the protocol: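 Kinase-Glo luminescence after a 60 min room-temperature reaction gives remaining ATP. The reaction holds 25 nM p85(iSH2)-p110β full-length His-tagged construct, 1 μM ATP, 10 μg/mL PI, and eight compound concentrations at 0.45% DMSO final. IC50 values come from a four-parameter logistic fit.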
Background: In Kinase-Glo more light means more ATP remaining.

For assay [1], the system named is PKB Ser473 phosphorylation in Rat1-myr-HA-p110 delta cells. Briefly: Reverse protein array assay, PKB Ser473 phosphorylation in Rat1-myr-p110 delta cells. Type of assay: cell-based. The note with it: read-out: p-PKB IC50. A digest of the protocol:
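After at least 20 h of culture, the p110 isoform-transfected Rat1 lines receive compound in an 8-step dilution series, keeping DMSO at 0.2%, for 30 minutes. Cells are then lysed and lysates arrayed on chips for fluorescence detection of Ser473-phosphorylated PKB.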

Another assay has as its target T2, PI3K alpha (Homo sapiens, UniProt P42336).
T2 construct: p85(iSH2) fusion partner (see partner chain) (N); His tag (C); made in house; host or cells: baculovirus; Tn5 (Trichoplusia ni) or TiniPro insect cells
The assay can be described thus: PI3K alpha kinase assay (Kinase-Glo luminescence). Type of assay: biochemical. A digest of the protocol: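 PI3K alpha at 10 nM with 1 μM ATP and 10 μg/mL phosphatidylinositol in 10 mM TRIS pH 7.5, 3 mM MgCl2, 50 mM NaCl, 0.05% CHAPS, 1 mM DTT, 60 min at room temperature. Remaining ATP read by Kinase-Glo luminescence. IC50 by 4-parameter fit over 8 concentrations.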

T1 sequence (P42338 with tags, fused parts or gaps limits assumed): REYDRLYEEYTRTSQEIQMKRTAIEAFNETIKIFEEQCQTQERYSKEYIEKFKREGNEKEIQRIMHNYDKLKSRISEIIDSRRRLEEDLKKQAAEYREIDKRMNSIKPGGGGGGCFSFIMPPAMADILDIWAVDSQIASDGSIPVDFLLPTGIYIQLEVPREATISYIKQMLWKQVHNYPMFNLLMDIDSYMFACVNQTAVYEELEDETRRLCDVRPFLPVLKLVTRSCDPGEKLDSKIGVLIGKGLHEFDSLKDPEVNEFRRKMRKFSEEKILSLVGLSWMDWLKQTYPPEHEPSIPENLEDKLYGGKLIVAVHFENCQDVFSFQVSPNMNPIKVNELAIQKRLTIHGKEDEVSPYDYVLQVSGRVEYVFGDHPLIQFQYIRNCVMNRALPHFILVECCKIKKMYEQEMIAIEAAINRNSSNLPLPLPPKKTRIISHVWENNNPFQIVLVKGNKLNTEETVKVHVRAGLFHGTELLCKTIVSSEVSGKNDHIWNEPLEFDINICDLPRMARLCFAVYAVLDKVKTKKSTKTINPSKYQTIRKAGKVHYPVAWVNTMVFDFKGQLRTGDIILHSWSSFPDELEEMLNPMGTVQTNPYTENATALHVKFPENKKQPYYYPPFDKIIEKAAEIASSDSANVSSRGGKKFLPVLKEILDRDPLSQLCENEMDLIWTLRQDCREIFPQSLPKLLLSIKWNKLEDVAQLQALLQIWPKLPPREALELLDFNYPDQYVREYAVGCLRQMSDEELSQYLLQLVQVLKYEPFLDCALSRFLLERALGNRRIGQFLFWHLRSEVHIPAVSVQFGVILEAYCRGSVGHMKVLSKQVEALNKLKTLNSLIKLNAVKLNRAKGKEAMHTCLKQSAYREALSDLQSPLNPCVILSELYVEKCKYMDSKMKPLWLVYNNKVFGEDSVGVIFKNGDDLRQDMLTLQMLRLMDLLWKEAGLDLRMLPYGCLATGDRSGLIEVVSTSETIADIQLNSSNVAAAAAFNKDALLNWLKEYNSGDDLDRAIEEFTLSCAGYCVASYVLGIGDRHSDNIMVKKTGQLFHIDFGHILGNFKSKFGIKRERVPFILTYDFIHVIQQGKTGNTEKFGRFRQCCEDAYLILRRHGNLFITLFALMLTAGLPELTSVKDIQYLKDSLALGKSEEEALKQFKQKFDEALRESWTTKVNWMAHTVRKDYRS
T2 sequence (P42336 with tags, fused parts or gaps limits assumed): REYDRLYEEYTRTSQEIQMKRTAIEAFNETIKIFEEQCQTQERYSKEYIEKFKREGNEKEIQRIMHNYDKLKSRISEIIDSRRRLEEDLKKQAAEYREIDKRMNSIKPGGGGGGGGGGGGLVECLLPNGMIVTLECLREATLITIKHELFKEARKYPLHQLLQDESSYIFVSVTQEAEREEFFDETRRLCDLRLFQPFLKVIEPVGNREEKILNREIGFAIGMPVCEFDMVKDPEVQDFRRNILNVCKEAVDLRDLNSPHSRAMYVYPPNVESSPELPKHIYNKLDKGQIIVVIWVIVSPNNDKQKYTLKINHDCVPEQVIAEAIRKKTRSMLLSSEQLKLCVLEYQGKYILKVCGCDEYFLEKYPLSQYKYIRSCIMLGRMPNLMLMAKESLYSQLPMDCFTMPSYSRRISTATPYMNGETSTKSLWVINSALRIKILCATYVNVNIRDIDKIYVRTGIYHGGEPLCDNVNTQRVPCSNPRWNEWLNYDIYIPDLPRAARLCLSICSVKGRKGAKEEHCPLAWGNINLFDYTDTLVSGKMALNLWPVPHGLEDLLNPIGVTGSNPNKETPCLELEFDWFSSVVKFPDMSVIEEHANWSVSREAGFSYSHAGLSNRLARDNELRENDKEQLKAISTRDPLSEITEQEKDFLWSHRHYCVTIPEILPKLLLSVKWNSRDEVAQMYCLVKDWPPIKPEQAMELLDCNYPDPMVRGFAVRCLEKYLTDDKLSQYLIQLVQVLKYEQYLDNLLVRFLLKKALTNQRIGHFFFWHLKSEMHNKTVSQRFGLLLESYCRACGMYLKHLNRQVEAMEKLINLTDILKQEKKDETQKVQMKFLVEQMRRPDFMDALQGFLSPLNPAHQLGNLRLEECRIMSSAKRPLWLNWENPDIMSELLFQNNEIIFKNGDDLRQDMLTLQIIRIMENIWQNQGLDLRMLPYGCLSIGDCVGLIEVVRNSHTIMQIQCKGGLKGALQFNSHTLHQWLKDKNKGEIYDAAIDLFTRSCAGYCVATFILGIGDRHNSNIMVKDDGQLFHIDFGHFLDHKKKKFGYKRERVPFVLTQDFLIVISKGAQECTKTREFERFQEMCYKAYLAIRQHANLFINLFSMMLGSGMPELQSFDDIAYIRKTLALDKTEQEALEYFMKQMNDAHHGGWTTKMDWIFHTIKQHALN

As a reminder, the pIC50 is the negative decadic logarithm of the IC50, by convention in mol/L. For the molecule `COCCNC(=O)c1cc(-c2ccc3ncc4c(c3c2)n(-c2cn(C)nc2C)c(=O)n4C)cnc1N` [Example 226, 2-Amino-5-[1-(1,3-dimethyl-1H-pyrazol-4-yl)-3-methyl-2-oxo-2,3-dihydro-1H-imidazo[4,5-c]quinolin-8-yl]-N-(2-methoxy-ethyl)-nicotinamide], the results for the negative logarithm of the IC50 (pIC50) (at PI3K beta; in assay [1]; on PI3K alpha) were 7.15, 6.36 and 7.48, respectively.
The like results for `COc1ncc(-c2ccc3ncc4c(c3c2)n(-c2cn(C(C)C)nc2C)c(=O)n4C)c(OC)n1` [Example 234.3, 8-(2,4-Dimethoxy-pyrimidin-5-yl)-1-(1-isopropyl-3-methyl-1H-pyrazol-4-yl)-3-methyl-1,3-dihydro-imidazo[4,5-c]quinolin-2-one] were, in that order, 6.82, 7.52 and 7.82.
For the molecule `Cc1nn(C)cc1-n1c(=O)n(C)c2cnc3ccc(-c4cnc(CO)c(Cl)c4)cc3c21` [Example 238, 8-(5-Chloro-6-hydroxymethyl-pyridin-3-yl)-1-(1,3-dimethyl-1H-pyrazol-4-yl)-3-methyl-1,3-dihydro-imidazo[4,5-c]quinolin-2-one], the pIC50 on PI3K beta was 6.99; in assay [1], 6.49; on PI3K alpha it was 7.54.
The like results for `CCOC(C)(C)c1cncc(-c2ccc3ncc4c(c3c2)n(-c2cn(C)nc2C)c(=O)n4C)c1` [Example 240, 1-(1,3-Dimethyl-1H-pyrazol-4-yl)-8-[5-(1-ethoxy-1-methyl-ethyl)-pyridin-3-yl]-3-methyl-1,3-dihydro-imidazo[4,5-c]quinolin-2-one] were, in that order, 7.04, 6.88 and 8.22.
The like results for `C=CCn1c(=O)n(-c2cn(C)nc2C)c2c3cc(-c4cncc(N)c4)ccc3ncc21` [Example 246, 3-Allyl-8-(5-amino-pyridin-3-yl)-1-(1,3-dimethyl-1H-pyrazol-4-yl)-1,3-dihydro-imidazo[4,5-c]quinolin-2-one] were, in that order, 7.09, 6.08 and 7.55.
